The record followed here is ChEMBL document CHEMBL1759899, “Design and synthesis of several small-size HTLV-I protease inhibitors with different hydrophilicity profiles” (Bioorg Med Chem Lett, 2011).

Numbered stars: 1 amine (or outer) side, 2 acyl side, 3 side chain; on linkers, the order of the positions; unused ones are H or OH. Square brackets hold non-standard residues; d marks the D form. Peptide text beside a SMILES is read from it. * marks the point of attachment. X1 = O=C([C@@H](O)[C@H](Cc1ccccc1)N[*:1])[*:2]; Thz(5,5-Me2) = CC1(C)SCN[C@@H]1C(=O)O; Phg = N[C@H](C(=O)O)c1ccccc1; Tle = CC(C)(C)[C@H](N)C(=O)O; Dap = NC[C@H](N)C(=O)O; NHCH2tBu = CC(C)(C)CN*

The test system of experiment [1] is T1, Protease (Human T-cell leukemia virus type I), Q82134 [L40I].
T1 sequence (whole entry): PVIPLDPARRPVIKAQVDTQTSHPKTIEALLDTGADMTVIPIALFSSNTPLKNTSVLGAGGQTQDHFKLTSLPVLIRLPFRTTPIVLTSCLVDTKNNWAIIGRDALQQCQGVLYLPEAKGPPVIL
Description: Inhibition of HTLV-1 recombinant protease L40I mutant at 50 nM.

For experiment [2], the target named is Protease (Human immunodeficiency virus 1) (UniProt Q9YQ12). The experiment in a line: Inhibition of HIV1 recombinant protease at 50 nM.
Protease (Human immunodeficiency virus 1), sequence (Q9YQ12 as listed by the source): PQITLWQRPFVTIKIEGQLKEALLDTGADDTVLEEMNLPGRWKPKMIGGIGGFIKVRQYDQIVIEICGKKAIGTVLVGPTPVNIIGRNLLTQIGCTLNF
Experiment [3] deals with Protease (Human T-cell leukemia virus type I, UniProt Q82134, L40I). Description: Inhibition of HTLV-1 recombinant protease L40I mutant.

In the case of `CN[C@H](C(=O)N[C@H](C(=O)N[C@@H](Cc1ccccc1)[C@H](O)C(=O)N1CSC(C)(C)[C@H]1C(=O)NCC(C)(C)C)C(C)(C)C)c1ccccc1`, the inhibition (usually how much of the control response was suppressed) in experiment [1] is 38%; in experiment [2], more than 99%. Also, the IC50 (commonly the concentration that inhibits the measured activity by half) in experiment [3] came out at 31.4 nM.
Consider `CCCC(=O)N[C@H](C(=O)N[C@H](C(=O)N[C@@H](Cc1ccccc1)[C@H](O)C(=O)N1CSC(C)(C)[C@H]1C(=O)NCC(C)(C)C)C(C)(C)C)c1ccccc1`, for which, in experiment [2], the inhibition stood at 99%.
In the case of `COC(=O)N[C@H](C(=O)N[C@H](C(=O)N[C@@H](Cc1ccccc1)[C@H](O)C(=O)N1CSC(C)(C)[C@H]1C(=O)NCC(C)(C)C)C(C)(C)C)c1ccccc1`, the inhibition in experiment [2] was 99%. Moreover, the IC50 in experiment [3] came out at 7.2 nM.
Regarding `CCN(CC)[C@H](C(=O)N[C@H](C(=O)N[C@@H](Cc1ccccc1)[C@H](O)C(=O)N1CSC(C)(C)[C@H]1C(=O)NCC(C)(C)C)C(C)(C)C)c1ccccc1`, the inhibition in experiment [1] amounted to 39%; in experiment [2] it was 98%.
With `COC(=O)N[C@H](C(=O)N[C@H](C(=O)N[C@@H](Cc1ccccc1)[C@H](O)C(=O)N1CSC(C)(C)[C@H]1C(=O)NCC(C)(C)O)C(C)(C)C)c1ccccc1`, the inhibition in experiment [2] was determined as 99%. Besides, the IC50 in experiment [3] was 39.1 nM.
On the same counts, the results for `CC(C)(C)CNC(=O)[C@H]1N(C(=O)[C@@H](O)[C@H](Cc2ccccc2)NC(=O)[C@@H](NC(=O)[C@@H](NC(=O)CCCN)c2ccccc2)C(C)(C)C)CSC1(C)C` are 99% and 25.4 nM.
On the same counts, the results for `CC(C)(C)CNC(=O)[C@H]1N(C(=O)[C@@H](O)[C@H](Cc2ccccc2)NC(=O)[C@@H](NC(=O)[C@@H](NC(=O)CN)c2ccccc2)C(C)(C)C)CSC1(C)C` (H-G[Phg][Tle][X1][Thz(5,5-Me2)]-NHCH2tBu) are 94% and 41.1 nM.
As for `CC(C)(C)CNC(=O)[C@H]1N(C(=O)[C@@H](O)[C@H](Cc2ccccc2)NC(=O)[C@@H](NC(=O)[C@@H](NCc2ccccc2)c2ccccc2)C(C)(C)C)CSC1(C)C`, the inhibition in experiment [1] is 44%; in experiment [2], 92%.
Take `CC(C)(C)CNC(=O)[C@H]1N(C(=O)[C@@H](O)[C@H](Cc2ccccc2)NC(=O)[C@@H](NC(=O)[C@@H](NC(=O)C(C)(CO)CO)c2ccccc2)C(C)(C)C)CSC1(C)C`: the inhibition was 18% in experiment [1] and 86% in experiment [2].
On the same counts, the results for `CC(C)(C)CNC(=O)[C@H]1N(C(=O)[C@@H](O)[C@H](Cc2ccccc2)NC(=O)[C@@H](NC(=O)[C@@H](NC(=O)[C@@H](N)CN)c2ccccc2)C(C)(C)C)CSC1(C)C` (H-[Dap][Phg][Tle][X1][Thz(5,5-Me2)]-NHCH2tBu) are 8% and 72%.
With `COC(=O)N[C@H](C(=O)N[C@H](C(=O)N[C@@H](Cc1ccccc1)[C@H](O)C(=O)N1CSC(C)(C)[C@H]1C(=O)NNC(C)(C)C)C(C)(C)C)c1ccccc1`, the inhibition in experiment [2] was determined as 99%. In addition, in experiment [3], the IC50 is 10.4 nM.
On to `CCN[C@H](C(=O)N[C@H](C(=O)N[C@@H](Cc1ccccc1)[C@H](O)C(=O)N1CSC(C)(C)[C@H]1C(=O)NCC(C)(C)C)C(C)(C)C)c1ccccc1`, for which the inhibition turned out to be 38% in experiment [1] and 99% in experiment [2]. The IC50 in experiment [3] is 25.5 nM.
On the same counts, the results for `CC(C)(C)CNC(=O)[C@H]1N(C(=O)[C@@H](O)[C@H](Cc2ccccc2)NC(=O)[C@@H](NC(=O)[C@@H](NC(=O)CCN)c2ccccc2)C(C)(C)C)CSC1(C)C` are 90%, 99% and 5.7 nM.
Take `CC(C)(C)CNC(=O)[C@H]1N(C(=O)[C@@H](O)[C@H](Cc2ccccc2)NC(=O)[C@@H](NC(=O)[C@@H](N)c2ccccc2)C(C)(C)C)CSC1(C)C`: the inhibition in experiment [1] is 38%.
On to `CN(C)[C@H](C(=O)N[C@H](C(=O)N[C@@H](Cc1ccccc1)[C@H](O)C(=O)N1CSC(C)(C)[C@H]1C(=O)NCC(C)(C)C)C(C)(C)C)c1ccccc1`, for which the inhibition was 38% in experiment [1] and 99% in experiment [2].
